Source: patent US20230067015A1, “SYSTEMS AND METHODS FOR ANTIBACTERIAL SUSCEPTIBILITY TESTING USING DYNAMIC LASER SPECKLE IMAGING” (The Penn State Research Foundation, priority 2020, published 2023)
≈ marks a conversion by molar mass, not a printed value. Where two headings read alike, the source gives them in different places.

Legend:
[1] = test system: MDR E. coli PS00278A; conditions: CLSI guideline M100 ED30:2020, tested on MDR E. coli; cited from earlier work
[2] = test system: MDR E. coli PS00278A; assay: Broth microdilution MIC (CLSI); assay type: cell-based, Escherichia coli
Experimental: Escherichia coli (E. coli) strain K-12 was used as a model bacterial strain in all experiments with ampicillin, gentamicin, and ceftriaxone. Multi-drug resistant (MDR) E. coli strain PS00278A (porcine isolate) was tested with ampicillin and gentamicin to contrast with the susceptible model bacterial strain. Staphylococcus aureus (S. aureus) strain PS00975A (human clinical isolate) was used with ampicillin to evaluate the methods' performance on a Gram-positive microorganism. Cultures were stored as a frozen stocks at −80° C. and resuscitated every 14 days to maintain a fresh inoculum. The culture was resuscitated by streaking onto Muller Hinton Agar (MHA) and was then incubated at 37° C. 20+/−2 h. A single colony from the MHA agar was re-streaked on a fresh MHA plate and incubated at 37° C. 20+/−2 h. A single colony from the MHA sub-streak plate was inoculated into 10 mL Muller Hinton Broth (MHB) and incubated at 37° C., shaking at 210 rpm, for 20+/−2 h. The overnight culture was diluted in MHB based on the OD600 to obtain 5×10^5 CFU/mL using a BioPhotometer D30 (Eppendorf, Hauppauge, N.Y.). […]
(§1) The 5×10^5 CFU/mL culture was used for broth microdilution and speckle imaging. […] The CLSI guideline M100 ED30:2020 was used to define clinical resistance based on determined MICs. […] MIC was determined by visually inspecting wells for turbidity resulting from culture growth.

[3] = test system: E. coli K-12; assay: DyRAST: ANN pixel-level prediction on DLSI data with voting; assay type: cell-based, Escherichia coli; conditions: 2×MIC
Experimental: For DLSI-based AST, the culture grown as outlined above was adjusted to 5×10^5 CFU/mL and was further incubated at 37° C., 210 rpm for 1 h to reach the logarithmic growth phase before an antibiotic was added to the culture in concentrations equal to 0×MIC (control), 0.5×MIC, 1×MIC, and 2×MIC. Three mL of each culture were collected at each time point, ti (i=0, 1, . . . , 4) at 0, 30 min, 60 min, 90 min, and 120 min, respectively, and transferred into the cuvette used for DLSI in the imaging system described above. At each ti, a dynamic speckle patterns series (16 bits, 1000×2000 pixels, 50 frames per second) was collected. The exposure time for each frame was 1 msec (millisecond) and the full capture period was 10 sec at each time point, ti. All experiments were conducted in independent triplicates.
The raw images (1000×2000) were first resized (100×200) using the nearest neighbor method to reduce the computational cost. The camera has a pixel size of 6.5 μm, corresponding to a 6.5 mm×13 mm detection area. Fourier Transform (FT) was performed along the time axis of the measured data cube. […]
The experimental replicates are pooled, processed together, and then divided randomly into training, validation, and test groups. […] Binary classification for the “Inhibited” and “Non-Inhibited” bacteria groups was determined with the input from frequency domain for each pixel. […]

[4] = test system: E. coli K-12; assay: Average intensity of raw dynamic laser speckle images; assay type: cell-based; conditions: Escherichia coli, K12; E. coli K-12, simple intensity measurement (false positive vs overnight MIC); read-out: MIC determined from speckle intensity data
Experimental: A helium-neon laser (wavelength: 632.8 nm, power: 0.8 mW, HNLS008L, Thorlabs Inc., USA) was used as an illumination source. The laser beam was slightly expanded by using a concave lens (focal length=−25.0 mm) before illuminating a cuvette (Fisherbrand, CAS#14-955-129) containing 3 mL of bacterial suspension. The resultant speckle pattern was captured by a CMOS camera (Zyla, ANDOR), interfaced to a computer. Note that other methods, such as an inverse telescope beam expander, can also be used to increase the incident laser beam size. Our choice of a diverging lens is due to its simplicity and compactness as well as the fact that an explicit physical model is not needed for the machine learning based analysis, which relaxes the requirement of a plane-wave incident beam as commonly used in dynamic light scattering. […]
The OD data and the average intensity values obtained from raw speckle patterns (examples shown in FIG. 2) are shown in FIG. 3A-B and FIG. 3C-D for ampicillin and gentamicin, respectively. […] While the OD values for different antibiotic concentrations are below the detection limit of the OD reading even after 120 min, the average speckle intensity values are distinguishable in 90 min. […]

[5] = test system: E. coli K-12; assay: Broth microdilution MIC (CLSI), confirmed by time-kill kinetics; assay type: cell-based, Escherichia coli; conditions: E. coli K-12, gold standard overnight methods
Experimental: Escherichia coli (E. coli) strain K-12 was used as a model bacterial strain in all experiments with ampicillin, gentamicin, and ceftriaxone. Multi-drug resistant (MDR) E. coli strain PS00278A (porcine isolate) was tested with ampicillin and gentamicin to contrast with the susceptible model bacterial strain. Staphylococcus aureus (S. aureus) strain PS00975A (human clinical isolate) was used with ampicillin to evaluate the methods' performance on a Gram-positive microorganism. Cultures were stored as a frozen stocks at −80° C. and resuscitated every 14 days to maintain a fresh inoculum. The culture was resuscitated by streaking onto Muller Hinton Agar (MHA) and was then incubated at 37° C. 20+/−2 h. A single colony from the MHA agar was re-streaked on a fresh MHA plate and incubated at 37° C. 20+/−2 h. A single colony from the MHA sub-streak plate was inoculated into 10 mL Muller Hinton Broth (MHB) and incubated at 37° C., shaking at 210 rpm, for 20+/−2 h. The overnight culture was diluted in MHB based on the OD600 to obtain 5×10^5 CFU/mL using a BioPhotometer D30 (Eppendorf, Hauppauge, N.Y.). An OD600 of 1 was considered to be equal to 8×10^8 CFU/mL, based on an E. coli OD600-CFU/ml standard curve.
as §1
Broth macrodilution was used to determine the time-kill kinetics of all strains, Culture in concentration of 5×10^5 CFU/mL was first grown for 1 hour at 37° C. in a shaking condition (210 rpm) and was then exposed to antibiotic concentrations of 0×MIC (control), 1×MIC, and 2×MIC that were previously determined via broth microdilution. Viable cells were quantified at times 0, 1, 2, 3, 5, 8, 16, and 24 hours by spiral plating (easySpiral, Interscience) 10-fold dilutions onto MHB agar. Inoculated plates were incubated at 37° C. for 16-20 hours and counted to determine the CFU/mL at each time point. […]

[6] = Escherichia coli, K12, read-out: MIC

Compound | intermediate breakpoint concentration (clinical resistance diagnosis breakpoint) [1] [µg/mL] | MIC ([2]; Escherichia coli, read-out: MIC) [µg/mL] | predicted percentage of classification as "Inhibited" ([3]; 30 min) [%] | predicted percentage of classification as "Inhibited" (votes) ([3]; 60 min) | MIC [4] [µg/mL] | MIC [5, 6] [µg/mL] | MIC [2] [µg/mL] | MIC [5] [µg/mL]
CC1(C)S[C@@H]2[C@H](NC(=O)[C@H](N)c3ccccc3)C(=O)N2[C@H]1C(=O)O [ampicillin, Ampicillin] | 16 | 2000 (≈ 5720 µM) | ~50 | more than 80% | 2 (≈ 5.72 µM) | 4 (≈ 11.4 µM) |  | 
gentamicin | 8 |  |  |  |  |  | 128 | 2
CO/N=C(\C(=O)N[C@@H]1C(=O)N2C(C(=O)O)=C(CSc3nc(=O)c(=O)[nH]n3C)CS[C@H]12)c1csc(N)n1 [ceftriaxone] |  |  |  |  |  | 0.0625 (≈ 0.113 µM) |  | 
